For data set [1], the target named is T1, F123A/F126A mutant of TipAL (Streptomyces lividans, UniProt P0A4T9, F123A/F126A). The data set can be described thus: FPA, thiostrepton-induced activation of F123A/F126A TipAL-ptipA binding. In kind it is biochemical. Particulars: thiostrepton 1:1, 15 min. Here is the method: (§1) FPAs were performed in buffer consisting of 20 mM Tris-HCl, pH 7.5, 200 mM NaCl and 5% (v/v) glycerol at 298 K using a SpectraMax M5 microplate reader system (Molecular Devices, San Jose, CA, USA). The wavelengths of fluorescence excitation and emission were 486 and 525 nm, respectively. 26-bp dsDNA from the −10 and −35 regions of the tipA, mta, and skgA promoters with the sequences […], […], and […] were synthesized with a 5′-carboxyfluorescein label for the respective assays with TipAL, Mta, and SkgA proteins. For assays with thiostrepton supplementation, proteins were incubated with thiostrepton (Sigma) at a 1:1 ratio for 15 min prior to mixing with DNA in wells. Each well of a 384-well plate contained 10 nM of a fluorescently labeled DNA probe and different amounts of proteins with a final volume of 80 μl. DNA-free controls were included, and three replicates were performed for each reaction for each assay. The fluorescence polarization ΔP (in mP units) was calculated and fitted according to a one-site specific binding model using GraphPad Prism7 (GraphPad Software) with the function ΔP = ΔPmax[protein]/(Kd + [protein]).

In data set [2] the target is T2, F123A mutant of TipAL (Streptomyces lividans, UniProt P0A4T9, F123A). The data set can be described thus: FPA, thiostrepton-induced activation of F123A TipAL-ptipA binding. Particulars: thiostrepton 1:1, 15 min. In kind it is biochemical. Here is the method: as §1
The test system of data set [3] is TipAL. Nature of the data set: FPA, thiostrepton-induced activation of TipAL-ptipA binding. Type of data set: biochemical, Streptomyces lividans. Particulars: WT TipAL with vs without thiostrepton (1:1, 15 min). Here is the method:
as §1

Data set [4] has as its target WT TipAL (Streptomyces lividans, UniProt P0A4T9). The data set can be described thus: Isothermal titration calorimetry, thiopeptide binding to WT TipAL. Here is the method: (§2) The ITC binding studies of the nosiheptide (Sigma) with WT TipAL and its mutants were performed using an ITC200 (GE Healthcare) at 298 K using a previously described protocol ([38]), with 60 μl of nosiheptide solution in the injector cell and 260 μl of protein solution in the sample cell. The injection volumes were set to […] for all experiments, and two consecutive injections were separated by 2 min to reset the baseline. The control experiments, in which nosiheptide was titrated against the buffer, were also conducted, and the results were subtracted from the results of each standard experiment for adjustments. Three replicates were performed for each reaction. The final data were processed with a one-site fitting model using Microcal-Origin (OriginLab Corp, Northampton, MA, USA).

For data set [5], the target named is I112A/F123A mutant of TipAL (Streptomyces lividans, UniProt P0A4T9, F123A/I112A). Nature of the data set: Isothermal titration calorimetry, thiopeptide binding to I112A/F123A TipAL. Here is the method:
as §2

Data set [6] concerns the target T1, F123A/F126A mutant of TipAL. The data set can be described thus: Isothermal titration calorimetry, thiopeptide binding to F123A/F126A TipAL. Here is the method:
as §2

Data set [7] concerns the target T2, F123A mutant of TipAL. The data set can be described thus: Isothermal titration calorimetry, thiopeptide binding to F123A TipAL. As to the method:
as §2

The target in data set [8] is tipA promoter DNA (ptipA). The data set can be described thus: Fluorescence polarization assay, tipA promoter DNA binding. Particulars: apo, no antibiotic; FPA, 10 nM 5'-carboxyfluorescein-labeled 26-bp dsDNA, 20 mM Tris-HCl pH 7.5, 200 mM NaCl, 5% glycerol, 298 K; ex 486/em 525 nm; one-site binding fit; three replicates; n.b. = printed in picture, not defined; read-out: Kd, affinity with the tipA promoter DNA (ptipA). The arrangement: species or system Streptomyces lividans. Here is the method:
Fluorescence polarization assays (FPAs) were performed to test the structure-based hypothesis that α6–α7 plays a key role in communication between the ligand-binding and DNA-binding regions. […] Parallel experiments were also performed for Mta and SkgA proteins, and consistent results were obtained.
as §1

On the set-up of data set [9]: method as in PMID 11669632, PMID 14985361. Particulars: ref [19], [26]; cited from earlier work.
Data set [10] addresses T3, TipAL F123A/F126A (Streptomyces lividans, UniProt P0A4T9 1-253, F123A;F126A).
T3 sequence: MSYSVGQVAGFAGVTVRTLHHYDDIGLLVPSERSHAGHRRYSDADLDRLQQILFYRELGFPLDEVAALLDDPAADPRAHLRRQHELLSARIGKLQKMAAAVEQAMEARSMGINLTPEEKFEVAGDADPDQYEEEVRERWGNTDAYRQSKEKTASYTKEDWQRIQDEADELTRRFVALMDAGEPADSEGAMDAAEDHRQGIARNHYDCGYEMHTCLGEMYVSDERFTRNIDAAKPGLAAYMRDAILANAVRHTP
The data set can be described thus: fluorescence polarization; thiostrepton 1:1; 20 mM Tris-HCl pH 7.5, 200 mM NaCl, 5% (v/v) glycerol, 298 K; 10 nM labeled DNA. Particulars: protein: recombinant; tags: His6 (pET-28a); chain copies: 2; label: 5'-carboxyfluorescein; blunt.

For data set [11], the target named is T4, TipAL (Streptomyces lividans, UniProt P0A4T9 1-253).
T4 sequence: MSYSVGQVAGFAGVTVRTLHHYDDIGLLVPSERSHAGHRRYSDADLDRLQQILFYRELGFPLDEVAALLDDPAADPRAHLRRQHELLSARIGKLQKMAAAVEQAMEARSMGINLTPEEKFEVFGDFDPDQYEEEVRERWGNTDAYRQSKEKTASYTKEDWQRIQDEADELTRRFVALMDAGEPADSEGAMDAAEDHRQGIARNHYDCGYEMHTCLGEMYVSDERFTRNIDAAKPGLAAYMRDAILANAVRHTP
The data set is described as above. Particulars: protein: recombinant; tags: His6 (pET-28a); chain copies: 2; label: 5'-carboxyfluorescein; blunt.

The target in data set [12] is T5, TipAL F123A (Streptomyces lividans, UniProt P0A4T9 1-253, F123A).
T5 sequence: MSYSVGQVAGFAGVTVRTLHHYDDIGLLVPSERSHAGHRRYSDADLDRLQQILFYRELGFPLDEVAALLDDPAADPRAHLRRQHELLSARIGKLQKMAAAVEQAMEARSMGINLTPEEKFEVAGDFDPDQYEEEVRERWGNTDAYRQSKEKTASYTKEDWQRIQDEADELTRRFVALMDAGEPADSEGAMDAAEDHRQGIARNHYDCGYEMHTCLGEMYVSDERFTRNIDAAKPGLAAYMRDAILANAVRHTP
The description is as above. The settings on record: protein: recombinant; tags: His6 (pET-28a); chain copies: 2; label: 5'-carboxyfluorescein; blunt.

Data set [13] concerns the target T6, TipAL I112A/F123A (Streptomyces lividans, UniProt P0A4T9 1-253, I112A;F123A).
T6 sequence: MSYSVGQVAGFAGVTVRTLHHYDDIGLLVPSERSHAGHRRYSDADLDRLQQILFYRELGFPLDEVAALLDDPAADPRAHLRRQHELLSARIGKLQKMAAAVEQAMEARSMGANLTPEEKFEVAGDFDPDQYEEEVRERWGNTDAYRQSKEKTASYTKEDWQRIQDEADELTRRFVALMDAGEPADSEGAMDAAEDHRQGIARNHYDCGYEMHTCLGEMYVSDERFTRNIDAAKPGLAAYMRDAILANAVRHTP
The description is as above. The settings on record: protein: recombinant; tags: His6 (pET-28a); chain copies: 2; label: 5'-carboxyfluorescein; blunt.

Data set [14] addresses T7, TipAN (Streptomyces lividans, UniProt P0A4T9 1-109).
T7 sequence: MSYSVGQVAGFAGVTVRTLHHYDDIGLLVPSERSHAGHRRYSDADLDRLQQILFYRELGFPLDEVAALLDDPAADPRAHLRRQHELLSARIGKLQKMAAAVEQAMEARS
Nature of the data set: fluorescence polarization; no thiostrepton; 20 mM Tris-HCl pH 7.5, 200 mM NaCl, 5% (v/v) glycerol, 298 K; 10 nM labeled DNA. The settings on record: protein: recombinant; tags: His6 (pET-28a); chain copies: 2; label: 5'-carboxyfluorescein; blunt.

Data set [15] deals with T8, TipAH7 (Streptomyces lividans, UniProt P0A4T9 1-140).
T8 sequence: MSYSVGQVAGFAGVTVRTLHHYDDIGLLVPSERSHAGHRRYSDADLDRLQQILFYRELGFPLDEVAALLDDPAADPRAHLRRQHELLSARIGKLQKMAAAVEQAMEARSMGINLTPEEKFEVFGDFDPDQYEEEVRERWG
The data set is described as above. The settings on record: protein: recombinant; tags: His6 (pET-28a); chain copies: 2; label: 5'-carboxyfluorescein; blunt.

In the case of `C=C(NC(=O)C(=C)NC(=O)c1csc(C2=N[C@@H]3c4csc(n4)[C@H]4NC(=O)c5csc(n5)[C@H]([C@](C)(O)[C@@H](C)O)NC(=O)[C@H]5CSC(=N5)/C(=C/C)NC(=O)[C@H]([C@@H](C)O)NC(=O)c5csc(n5)[C@]3(CC2)NC(=O)[C@H](C)NC(=O)C(=C)NC(=O)[C@H](C)NC(=O)[C@H]([C@@H](C)CC)N[C@@H]2C=Cc3c([C@H](C)O)cc(nc3[C@H]2O)C(=O)O[C@@H]4C)n1)C(N)=O` [thiostrepton], the “rise in ptipA binding in the presence of thiostrepton” value in data set [1] and in data set [2] was “did not show such a significant rise” each time. Moreover, the “increase in ptipA affinity of TipAL by thiostrepton binding” value in data set [3] is around 12.6 fold.
In the case of `C=C(NC(=O)c1csc(-c2nc3c(cc2O)-c2nc(cs2)C(=O)NC(C(C)O)C(=O)N/C(=C\C)c2nc(cs2)C(=O)NC2CC(O)C(=O)OCc4cccc5[nH]c(c(C)c45)C(=O)SCC(NC(=O)c4csc2n4)c2nc-3cs2)n1)C(N)=O` (stereo not drawn) [thiopeptide, nosiheptide], the Kd was found to be 5230 ± 840 nM in data set [4], 7510 ± 870 nM in data set [5], 13200 ± 1360 nM in data set [6] and 7120 ± 950 nM in data set [7]. Also, the “thiopeptide-binding affinity compared with WT and F123A” value in data set [5] (I112A/F123A vs WT and F123A TipAL, ITC) is “without a significant difference”. In addition, the “decrease in thiopeptide affinity vs WT” value in data set [6] (F123A/F126A vs WT TipAL, ITC) is listed as around 2.5 fold; in [7] (F123A vs WT TipAL, ITC), around 1.4 fold.

B1: TipAN: N terminus of TipAL, residues 1–109 (protein)
chain: MSYSVGQVAGFAGVTVRTLHHYDDIGLLVPSERSHAGHRRYSDADLDRLQQILFYRELGFPLDEVAALLDDPAADPRAHLRRQHELLSARIGKLQKMAAAVEQAMEARS
modifications: left off: His6, end not stated, state not stated
For B1, in data set [8], the Kd was determined as 44 ± 5.1 nM. The “transcriptional activity in the absence of the TipAS domain” value in [9] is given as “constitutively transcriptionally active”.

B2: ptipA (dsDNA)
DNA 1: TTGCACCTCACGTCACGTGAGGAGGC
DNA 2: GCCTCCTCACGTGACGTGAGGTGCAA
Regarding B2, the Kd was 317 ± 51.4 nM in data set [10]; 30.2 ± 3.7 nM in [11]; 228 ± 25.9 nM in data set [12]; 685 ± 97.9 nM in [13]; 44 ± 5.1 nM in [14]; 318 ± 58.5 nM in data set [15].

(Values after publication PMC7762955, “Antibiotic binding releases autoinhibition of the TipA multidrug-resistance transcriptional regulator” (The Journal of Biological Chemistry, 2020).)
